For one compound, inhibition and IC50 results are on record in patent publication US12065436B2, “Cardiac sarcomere inhibitors” (Cytokinetics, Inc., priority 2018, dated 2024).

Test [1] has as its system adult cardiac ventricular rat myocytes. Nature of the test: Adult ventricular myocyte contractility (fractional shortening). It is filed as cell-based. The settings on record: 5 min, 5 μM compound, 5 min perfusion, read-out: % FS (% reduction from baseline) ± SEM. As to the method: Adult male Sprague-Dawley rats were anesthetized and the hearts were quickly excised, rinsed and the ascending aorta was cannulated. Continuous retrograde perfusion was initiated on the hearts at a perfusion pressure of 60 cm H2O. Hearts were first perfused with a nominally Ca^2+-free modified Krebs solution of the following composition: 113 mM NaCl, 4.7 mM KCl, 0.6 mM KH2PO4, 0.6 mM Na2HPO4, 1.2 mM MgSO4, 12 mM NaHCO3, 10 mM KHCO3, 30 mM taurine, 5.5 mM glucose and 10 mM Hepes (all Sigma). This medium is not recirculated and is continually aerated with a 95% O2/5% CO2 mixture. After approximately 3 minutes the heart was perfused with a modified Krebs buffer supplemented with collagenase (Worthington) and 12.5 μM final calcium concentration. The heart was removed from the cannulae after the heart appeared blanched and soft in appearance. The atria and vessels were removed and the ventricles were gently dissected into smaller pieces with forceps. The tissue was homogenized by repeated pipette trituration and the collagenase reaction was stopped by 10% bovine calf serum (BCS), sedimentation and resuspension in perfusion buffer containing 5% BCS and 12.5 uM CaCl2). Myocytes were made calcium tolerant by stepwise addition of a CaCl2) solution to a final concentration of 1.2 mM. Cells were then washed and resuspended in Tyrode's buffer (137 mM NaCl, 3.7 mM KCl, 0.5 mM MgCl, 11 mM glucose, 4 mM Hepes, and 1.2 mM CaCl2), pH 7.4). Cells were kept for 60 min at 37° C. prior to initiating experiments and used within 5 hrs of isolation. […] Additionally, only cells whose basal contractility was between 3 and 8% were used in subsequent experiments with compounds.
Aliquots of myocytes in Tyrode's buffer were placed in perfusion chambers (series 20 RC-27NE; Warner Instruments) complete with heating platforms. Myocytes were allowed to attach, the chambers were heated to 37° C., and the cells were perfused with 37° C. Tyrode's buffer. Myocytes were field stimulated at 1 Hz in with platinum electrodes (20% above threshold). Only cells that had clear striations and were quiescent prior to pacing were used for contractility experiments. To determine basal contractility, myocytes were imaged through a 40× objective. […] Once cell contraction was stable over time, test compounds (0.01-15 μM) were perfused into the chambers on the myocytes for 5 minutes. Contractility of the myocytes and contraction and relaxation velocities were then recorded using edge detection.
Five or more individual myocytes were tested per compound from two or more different myocyte preparations. For each cell, twenty or more contractility transients at basal (defined as 1 min prior to compound infusion) and after compound addition (defined as 5 min after starting compound perfusion), were averaged and compared. These average transients were analyzed using the IonWizard software (IonOptix) to determine changes in diastolic length and fractional shortening. Fractional shortening was calculated as: ((resting length−length at peak contraction) divided by the resting length). The percent change in fractional shortening from baseline was calculated as: ((post-dose fractional shortening/basal fractional shortening)*100). The percent reduction in fractional shortening from baseline was calculated as: (100−percent change in fractional shortening from baseline). Maximum contraction and relaxation velocities (um/sec) was also determined. Results from individual cells are averaged and the SEM calculated.

Test [2] has as its system rat cardiac contractility (left ventricle fractional shortening). Nature of the test: Echocardiography of acute effect on rat cardiac contractility, continuous IV infusion. The settings on record: Rattus norvegicus, plasma concentration at which fractional shortening is 50% of pre-dose baseline, estimated, read-out: IC50 (Mean ± S.D.). It is filed as in vivo, Sprague Dawley rats. The method in brief: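 Male Sprague Dawley rats under 1–3% isoflurane received compound in 50% PG/16% Captisol/10% DMA by jugular infusion at 1 mL/kg/h. Left-ventricle M-mode images were taken at baseline and every 5 min, with infusion stopped at up to 60% fall in fractional shortening. Plasma levels gave the estimated IC50, the concentration at which fractional shortening is 50% of baseline.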

Turning to `CC(C)c1nc(-c2ccc3c(c2)CC[C@H]3NC(=O)c2nnn(C)n2)no1` [Compound 142, (R)—N-(5-(5-isopropyl-1,2,4-oxadiazol-3-yl)-2,3-dihydro-1H-inden-1-yl)-2-methyl-2H-tetrazole-5-carboxamide], the inhibition at 5 µM in test [1] came out at 67.8%. For the same compound, the IC50 in test [2] is 2700 ± 120 nM.

One may read the IC50 as the concentration that gives 50% inhibition.
